In ChEMBL document CHEMBL4602638, “Propargylglycine-based antimicrobial compounds are targets of TolC-dependent efflux systems in Escherichia coli” (Bioorg Med Chem Lett, 2020):
≈ marks a conversion by molar mass, not a printed value. One block for each molecule: values may come before it. Calls of active or inactive are those of the source. The calls are words filed in the database; no cut-off is given here.

Experiments:
[1] = Lipophilicity, logP of compound; type: physicochemical; settings: octanol/water
[2] = molecular target: T1, UDP-3-O-acyl-N-acetylglucosamine deacetylase (Pseudomonas aeruginosa (strain ATCC 15692 / PAO1 / 1C / PRS 101 / LMG12228)) (UniProt P47205); experiment: Inhibition of LpxC in Pseudomonas aeruginosa assessed as reduction in bacterial growth measured after 20 hrs by CLSI protocol based microbroth dilution method
T1 sequence (whole entry): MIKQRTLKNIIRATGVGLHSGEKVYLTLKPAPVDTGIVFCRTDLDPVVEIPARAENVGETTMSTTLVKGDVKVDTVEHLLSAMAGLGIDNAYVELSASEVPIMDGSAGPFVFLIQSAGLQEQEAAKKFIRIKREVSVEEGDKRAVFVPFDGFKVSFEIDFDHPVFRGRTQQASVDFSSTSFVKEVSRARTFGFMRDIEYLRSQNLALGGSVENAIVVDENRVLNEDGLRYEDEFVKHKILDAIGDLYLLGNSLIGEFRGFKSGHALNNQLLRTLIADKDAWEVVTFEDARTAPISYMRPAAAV

[3] = molecular target: T2, UDP-3-O-acyl-N-acetylglucosamine deacetylase (Escherichia coli K-12) (UniProt P0A725); experiment: Inhibition of LpxC in Escherichia coli assessed as reduction in bacterial growth measured after 20 hrs by CLSI protocol based microbroth dilution method
T2 sequence (whole entry): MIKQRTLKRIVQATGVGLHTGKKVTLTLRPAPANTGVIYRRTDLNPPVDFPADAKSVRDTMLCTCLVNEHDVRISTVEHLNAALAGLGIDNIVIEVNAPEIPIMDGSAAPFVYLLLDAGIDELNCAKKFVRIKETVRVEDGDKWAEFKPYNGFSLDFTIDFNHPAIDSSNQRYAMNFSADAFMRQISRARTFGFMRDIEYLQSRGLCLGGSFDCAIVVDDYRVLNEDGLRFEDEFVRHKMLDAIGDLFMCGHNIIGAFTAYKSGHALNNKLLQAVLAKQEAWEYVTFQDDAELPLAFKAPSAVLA

[4] = molecular target: T2, UDP-3-O-acyl-N-acetylglucosamine deacetylase (Escherichia coli K-12); experiment: Inhibition of LpxC in Escherichia coli expressing deltaCdelta4LFhuA assessed as reduction in bacterial growth measured after 20 hrs by CLSI protocol based microbroth dilution method
[5] = molecular target: T2, UDP-3-O-acyl-N-acetylglucosamine deacetylase (Escherichia coli K-12); experiment: Inhibition of LpxC in Escherichia coli harboring deltaACRB mutant assessed as reduction in bacterial growth measured after 20 hrs by CLSI protocol based microbroth dilution method
[6] = molecular target: T2, UDP-3-O-acyl-N-acetylglucosamine deacetylase (Escherichia coli K-12); experiment: Inhibition of LpxC in Escherichia coli harboring deltaTolC mutant assessed as reduction in bacterial growth measured after 20 hrs by CLSI protocol based microbroth dilution method
[7] = molecular target: T1, UDP-3-O-acyl-N-acetylglucosamine deacetylase (Pseudomonas aeruginosa (strain ATCC 15692 / PAO1 / 1C / PRS 101 / LMG12228)); experiment: Inhibition of LpxC in Pseudomonas aeruginosa assessed as delay in bacterial growth at 25 to 50 ug/ml measured after 20 hrs by CLSI protocol based microbroth dilution method
[8] = molecular target: T2, UDP-3-O-acyl-N-acetylglucosamine deacetylase (Escherichia coli K-12); experiment: Inhibition of LpxC in Escherichia coli assessed as reduction in bacterial growth at 160 ug/ml measured after 20 hrs by CLSI protocol based microbroth dilution method
[9] = molecular target: T2, UDP-3-O-acyl-N-acetylglucosamine deacetylase (Escherichia coli K-12); experiment: Inhibition of LpxC in Escherichia coli assessed as reduction in bacterial growth at 80 ug/ml measured after 20 hrs by CLSI protocol based microbroth dilution method
[10] = molecular target: T2, UDP-3-O-acyl-N-acetylglucosamine deacetylase (Escherichia coli K-12); experiment: Inhibition of LpxC in Escherichia coli expressing deltaCdelta4LFhuA and harboring deltaACRB mutant assessed as reduction in bacterial growth measured after 20 hrs by CLSI protocol based microbroth dilution method
[11] = molecular target: T2, UDP-3-O-acyl-N-acetylglucosamine deacetylase (Escherichia coli K-12); experiment: Inhibition of LpxC in Escherichia coli expressing deltaCdelta4LFhuA assessed as reduction in bacterial growth at 80 ug/ml measured after 20 hrs by CLSI protocol based microbroth dilution method
[12] = molecular target: T2, UDP-3-O-acyl-N-acetylglucosamine deacetylase (Escherichia coli K-12); experiment: Inhibition of LpxC in Escherichia coli expressing deltaCdelta4LFhuA and harboring deltaTolC mutant assessed as reduction in bacterial growth measured after 20 hrs by CLSI protocol based microbroth dilution method

Structure (SMILES): C#CC[C@H](NC(=O)c1ccc(OCC#CC)cc1)C(=O)NO
logP [1]: 1.29
MIC [2]: 100 µg/mL (≈ 333 µM)
MIC [3]: > 160 µg/mL
inhibition [3]: Dose-dependent effect
MIC [4]: 100 µg/mL (≈ 333 µM)
MIC [5]: 80 µg/mL (≈ 266 µM)
MIC [6]: 80 µg/mL (≈ 266 µM)
inhibition [7]: Active
inhibition [8]: inactive

Structure (SMILES): C#CC[C@H](NC(=O)c1ccc(-c2ccccc2)cc1)C(=O)NO
logP [1]: 2.28
MIC [5]: 32 µg/mL (≈ 104 µM)
inhibition [5]: Dose-dependent effect
MIC [6]: 16 µg/mL (≈ 51.9 µM)
inhibition [9]: inactive
inhibition [10]: Active
inhibition [11]: inactive
inhibition [12]: Active

Structure (SMILES): N[C@@H](Cc1cn(C[C@H]2O[C@@H](n3ccc(=O)[nH]c3=O)[C@H](O)[C@@H]2O)nn1)C(=O)NO
logP [1]: -3.52

Structure (SMILES): CC#CCOc1ccc(C(=O)N[C@H](C(=O)NO)C(C)(C)N)cc1
logP [1]: 0.44

The remaining lines, values ahead:

logP [1]: 0.61
Structure (SMILES): C#CC[C@H](NC(=O)c1ccccc1)C(=O)NO

logP [1]: -0.01
Structure (SMILES): O=C(N[C@@H](Cc1cn(C[C@H]2O[C@@H](n3ccc(=O)[nH]c3=O)[C@H](O)[C@@H]2O)nn1)C(=O)NO)c1ccc(-c2ccccc2)cc1

logP [1]: -1.69
Structure (SMILES): CC#CCOc1ccc(C(=O)N[C@@H](Cc2cn(C[C@H]3O[C@@H](n4ccc(=O)[nH]c4=O)[C@H](O)[C@@H]3O)nn2)C(=O)NO)cc1
